Results from patent publication US20250241914A1, “BIFUNCTIONAL PHARMACEUTICAL COMPOUNDS” (DE MONTFORT UNIVERSITY, priority 2024, published 2025).
Values after ≈ are worked out from the molar mass of the structure shown. Like-named read-outs stand apart in the source and are kept apart here.

Legend:
[1] = system: M. tuberculosis H37Rv (ATCC 25618 Wild-type); test: microbe, parasite or virus in culture; type: cell-based
[2] = system: M. tuberculosis HN-878 (wild-type); test: microbe, parasite or virus in culture; type: cell-based
S. aureus NCTC 12493 = test: in vitro antistaphylococcal activity, broth microdilution method (MIC/MBC); type: cell-based, Staphylococcus aureus; settings: for MIC / MBC: Staphylococcus aureus; for MIC: NCTC12493, lowest concentration inhibiting visible growth; for MBC: NCTC12493, lowest concentration reducing viability of inoculum by ≥99.9%, 24 h at 37° C.
[3] = Mycobacterium tuberculosis, 120 h; read-out: Mycobacterium tuberculosis strain MIC90, H37Rv
[4] = Mycobacterium tuberculosis, 120 h; read-out: Mycobacterium tuberculosis strain MIC90, HN-878

With `CO[C@H]1/C=C/O[C@@]2(C)Oc3c(C)c(O)c4c(O)c(c(CNCCCn5cc(CCn6cc(F)c(=O)[nH]c6=O)nn5)c(O)c4c3C2=O)NC(=O)/C(C)=C\C=C\[C@H](C)[C@H](C)[C@@H](C)[C@@H](O)[C@@H](C)[C@H](OC(C)=O)[C@@H]1C` [Compound 3A] the MIC90 [1, 3] was 0.0039 µM (≈ 0.00386 µg/mL), the MIC90 [2, 4] was 0.059 ± 0.01 µM (≈ 0.0584 µg/mL) and the “MBC value relative to MIC value” (S. aureus NCTC 12493) was “the same”. It also gave an MIC (S. aureus NCTC 12493) of 1 µg/mL (≈ 1.01 µM) and an MBC (S. aureus NCTC 12493) of 1 µg/mL (≈ 1.01 µM).
`CO[C@H]1/C=C/O[C@@]2(C)Oc3c(C)c(O)c4c(O)c(c(CNCCOCCOCCOCn5cc(CCn6cc(F)c(=O)[nH]c6=O)nn5)c(O)c4c3C2=O)NC(=O)/C(C)=C\C=C\[C@H](C)[C@H](C)[C@@H](C)[C@@H](O)[C@@H](C)[C@H](OC(C)=O)[C@@H]1C` [Compound 3B] was tested, and the MIC90 [1, 3] was 0.0039 µM (≈ 0.00427 µg/mL), the MIC90 [2, 4] was 0.096 ± 0.064 µM (≈ 0.105 µg/mL) and the “MBC value relative to MIC value” (S. aureus NCTC 12493) was “the same”. The MIC (S. aureus NCTC 12493) was 2 µg/mL (≈ 1.83 µM) and the MBC (S. aureus NCTC 12493) was 2 µg/mL (≈ 1.83 µM).
`CO[C@H]1/C=C/O[C@@]2(C)Oc3c(C)c(O)c4c(O)c(c(CNCCOCCOCCOCn5cc(CCCn6cc(F)c(=O)[nH]c6=O)nn5)c(O)c4c3C2=O)NC(=O)/C(C)=C\C=C\[C@H](C)[C@H](C)[C@@H](C)[C@@H](O)[C@@H](C)[C@H](OC(C)=O)[C@@H]1C` [Compound 3C] gave an MIC90 [1, 3] of 0.0034 µM (≈ 0.00377 µg/mL) and an MIC90 [2, 4] of 0.07 ± 0.042 µM (≈ 0.0776 µg/mL).
In the case of `O=c1[nH]cc(F)c(=O)[nH]1` [Compound 5-FU, 5-Fluorouracil, reference compound], the “MBC value relative to MIC value” (S. aureus NCTC 12493) is reported as 8 times, the MIC (S. aureus NCTC 12493) is reported as 2 µg/mL (≈ 15.4 µM) and the MBC (S. aureus NCTC 12493) is reported as 16 µg/mL (≈ 123 µM).
With `NNC(=O)c1ccncc1` [Isoniazid, reference compound] the MIC90 [1, 3] was 0.28 µM (≈ 0.0384 µg/mL) and the MIC90 [2, 4] was 0.29 µM (≈ 0.0398 µg/mL).
In the case of `CO[C@H]1/C=C/O[C@@]2(C)Oc3c(C)c(O)c4c(O)c(c(/C=N/N5CCN(C)CC5)c(O)c4c3C2=O)NC(=O)/C(C)=C\C=C\[C@H](C)[C@H](O)[C@@H](C)[C@@H](O)[C@@H](C)[C@H](OC(C)=O)[C@@H]1C` [Rifampicin, reference compound], the MIC90 ([1]; Mycobacterium tuberculosis, 120 h, read-out: Mycobacterium tuberculosis strain MIC90, H37Rv) is reported as 0.0045 µM (≈ 0.0037 µg/mL), the MIC90 ([2]; Mycobacterium tuberculosis, 120 h, read-out: Mycobacterium tuberculosis strain MIC90, HN-878) is reported as 0.02 µM (≈ 0.0165 µg/mL) and the “MBC value relative to MIC value” (S. aureus NCTC 12493) is reported as 16 times. The MIC (S. aureus NCTC 12493) was 0.25 µg/mL (≈ 0.304 µM) and the MBC (S. aureus NCTC 12493) was 4 µg/mL (≈ 4.86 µM).
